# Assay results: paper PMC11672400, “Synthesis, Spectroscopic Characterization, Structural Analysis, and Evaluation of Anti-Tumor, Antimicrobial, and Antibiofilm Activities of Halogenoaminopyrazoles Derivatives” (Antibiotics, 2024)
# Where two headings read alike, the source gives them in different places.
# What was measured:
# [1] = system: HEp-2 epithelial tumor cells; test: MTT cell viability / anti-tumor activity; details: Homo sapiens, read-out: Cell viability on Hep2 cells (%)
# [2] = system: Staphylococcus aureus ATCC25923; test: MIC by serial microdilution in liquid medium; type: cell-based; details: 24 h, 37 °C; for MIC: Staphylococcus aureus, ATCC25923, read-out: Minimum inhibitory concentration, Staphylococcus aureus ATCC25923
# Protocol: (§1) The minimum inhibitory concentrations (MIC) were determined by the serial microdilution method in a liquid medium (Tryptone Soy Broth), on 96-well plates. Serial binary dilutions of the compound stock solution (10 mg/mL in DMSO) were carried out in 90 µL of culture medium and 10 µL of 10^6 CFU/mL (Colony Forming Units) microbial suspension. Each test included a positive control (wells with culture medium and microbial suspension) and a negative control for medium sterility. After incubation at 37 °C for 24 h the plates were visually examined, and optical density was measured at 620 nm. […] The MIC value (µg/mL) for the chemical compound was determined by the concentration in the final well without bacterial growth. All experiments were performed in triplicate.
# [3] = system: Enterococcus faecalis ATCC29212; test: MIC by serial microdilution in liquid medium; type: cell-based; details: Enterococcus faecalis, ATCC29212; 24 h, 37 °C; read-out: Minimum inhibitory concentration, Enterococcus faecalis ATCC29212
# Protocol: as §1
# [4] = system: Pseudomonas aeruginosa ATCC27853; test: MIC by serial microdilution in liquid medium; type: cell-based; details: Pseudomonas aeruginosa, ATCC27853; 24 h, 37 °C; read-out: Minimum inhibitory concentration, Pseudomonas aeruginosa ATCC27853
# Protocol: as §1
# [5] = system: Escherichia coli ATCC25922; test: MIC by serial microdilution in liquid medium; type: cell-based; details: 24 h, 37 °C; for MIC: Escherichia coli, ATCC25922, read-out: Minimum inhibitory concentration, Escherichia coli ATCC25922
# Protocol: as §1
# [6] = system: Staphylococcus aureus ATCC25923; test: Antibiofilm assay (crystal violet), MBIC; type: cell-based; details: 24 h, 37 °C; for minimal effective concentration: Staphylococcus aureus, ATCC25923, read-out: Minimum biofilm inhibition concentration (MBIC), Staphylococcus aureus ATCC25923
# Protocol: (§2) Microorganisms were grown in 96-well plates filled with nutrient broth along with test substances, followed by incubation at 37 °C for 24 h. Plates were cleaned and rinsed thrice using SPW solution (sterile physiological water). After that, the attached cells were treated with 110 μL of methanol for 5 min, and then the methanol was removed by turning it upside down. […] Once stained, the solution was removed, and the plates were washed with running tap water. […] The antimicrobial/antibiofilm activity of the compounds was evaluated against two antibiotics, commercial formulations of metronidazole and nitrofurantoin.
# [7] = system: Pseudomonas aeruginosa ATCC27853; test: Antibiofilm assay (crystal violet), MBIC; type: cell-based; details: 37 °C; for minimal effective concentration: Pseudomonas aeruginosa, ATCC27853, 24 h, read-out: Minimum biofilm inhibition concentration (MBIC), Pseudomonas aeruginosa ATCC27853
# Protocol: as §2
# [8] = system: Escherichia coli ATCC25922; test: Antibiofilm assay (crystal violet), MBIC; type: cell-based; details: 37 °C; for minimal effective concentration: Escherichia coli, ATCC25922, 24 h, read-out: Minimum biofilm inhibition concentration (MBIC), Escherichia coli ATCC25922
# Protocol: as §2
# [9] = system: Staphylococcus aureus ATCC25923; test: Qualitative evaluation of antimicrobial activity (inhibition zone, spot on agar); type: cell-based; parameters: key: (+) inhibited bacterial growth; (-) did not inhibit bacterial growth; details: 0.06 g/2 mL DMSO, 5 µL spot
# Protocol: (§3) For testing the antimicrobial/antibiofilm activity, the concentration of the studied compounds was identical to 0.06 g/2 mL DMSO. 0.5 Standard McFarland suspension was used, which was inoculated onto Mueller Hinton agar plates, (Remel, Lenexa, KS, USA), 5 µL of each compound was spotted and incubated overnight at 37 °C. Antimicrobial activity was observed as zones of inhibition formed around the spot.
# [10] = system: Enterococcus faecalis ATCC29212; test: as above; type: cell-based; parameters: key: (+) inhibited bacterial growth; (-) did not inhibit bacterial growth; details: 0.06 g/2 mL DMSO, 5 µL spot
# Protocol: as §3
# [11] = system: Pseudomonas aeruginosa ATCC27853; test: as above; type: cell-based; parameters: key: (+) inhibited bacterial growth; (-) did not inhibit bacterial growth; details: 0.06 g/2 mL DMSO, 5 µL spot
# Protocol: as §3
# [12] = system: Escherichia coli ATCC25922; test: as above; type: cell-based; parameters: key: (+) inhibited bacterial growth; (-) did not inhibit bacterial growth; details: 0.06 g/2 mL DMSO, 5 µL spot
# Protocol: as §3
# [13] = MTT cell viability / cytotoxicity on normal fibroblasts; type: cell-based, mouse; details: mouse, NCTC clone 929 (L929) mouse fibroblast cells
# Description: Merck chemicals were utilized.
# Untreated cells were used as control, considered 100% viable cells.
# [14] = system: Enterococcus faecalis ATCC29212; test: Antibiofilm assay (crystal violet), MBIC; type: cell-based; details: Enterococcus faecalis, ATCC29212, 24 h, 37 °C, read-out: Minimum biofilm inhibition concentration (MBIC), Enterococcus faecalis ATCC29212
# Protocol: as §2
smiles,measurement,setting,value
"Cc1nn(CNc2ccccc2Cl)c(C)c1[N+](=O)[O-] [4f, N-[(3,5-dimetyl-4-nitro-1H-pyrazol-1-yl)-methyl]-2-chloroaniline]",viability at 3.1 µg/mL,"[1]; HEp-2, 24 h",98.3 ± 1.16%
same,viability at 6.25 µg/mL,"[1]; HEp-2, 24 h",98.61 ± 0.72%
same,viability at 12.5 µg/mL,"[1]; HEp-2, 24 h",95.5 ± 2.45%
same,viability at 25 µg/mL,"[1]; HEp-2, 24 h",94.3 ± 2.78%
same,viability at 50 µg/mL,"[1]; HEp-2, 24 h",93.9 ± 1.03%
same,viability at 3.1 µg/mL,"[1]; HEp-2, 48 h",98.3 ± 3.38%
same,viability at 6.25 µg/mL,"[1]; HEp-2, 48 h",97.74 ± 0.62%
same,viability at 12.5 µg/mL,"[1]; HEp-2, 48 h",93.63 ± 0.75%
same,viability at 25 µg/mL,"[1]; HEp-2, 48 h",86 ± 0.93%
same,viability at 50 µg/mL,"[1]; HEp-2, 48 h",72.8 ± 2.33%
same,"Minimum inhibitory concentration, Staphylococcus aureus ATCC25923",[2],460 ± 0.01 µg/mL
same,MIC,[2],460 µg/mL
same,MIC,[3],930 ± 0.04 µg/mL
same,MIC,[4],460 ± 0.03 µg/mL
same,"Minimum inhibitory concentration, Escherichia coli ATCC25922",[5],460 ± 0.02 µg/mL
same,MIC,[5],460 µg/mL
same,melting point,,134 to 135 °C
same,"Minimum biofilm inhibition concentration (MBIC), Staphylococcus aureus ATCC25923",[6],460 ± 0.02 µg/mL
same,minimal effective concentration,[6],460 µg/mL
same,"Minimum biofilm inhibition concentration (MBIC), Pseudomonas aeruginosa ATCC27853",[7]; 24 h,460 ± 0.01 µg/mL
same,minimal effective concentration,[7],460 µg/mL
same,"Minimum biofilm inhibition concentration (MBIC), Escherichia coli ATCC25922",[8]; 24 h,460 ± 0.02 µg/mL
same,minimal effective concentration,[8],460 µg/mL
same,"Qualitative antimicrobial activity, Staphylococcus aureus ATCC25923",[9],+
same,"Qualitative antimicrobial activity, Enterococcus faecalis ATCC29212",[10],-
same,"Qualitative antimicrobial activity, Pseudomonas aeruginosa ATCC27853",[11],+
same,"Qualitative antimicrobial activity, Escherichia coli ATCC25922",[12],+
same,"viability at 24 h, 3.1 µg/mL","[13]; 3.1 µg/mL, 24h",107 ± 1.61%
same,"viability at 48 h, 3.1 µg/mL","[13]; 3.1 µg/mL, 48h",99.6 ± 1.2%
same,"viability at 24 h, 6.25 µg/mL","[13]; 6.25 µg/mL, 24h",108 ± 1.6%
same,"viability at 48 h, 6.25 µg/mL","[13]; 6.25 µg/mL, 48h",106 ± 1.7%
same,"viability at 24 h, 12.5 µg/mL","[13]; 12.5 µg/mL, 24h",103 ± 1.05%
same,"viability at 48 h, 12.5 µg/mL","[13]; 12.5 µg/mL, 48h",103.1 ± 0.68%
same,"viability at 24 h, 25 µg/mL","[13]; 25 µg/mL, 24h",93.7 ± 2.77%
same,"viability at 48 h, 25 µg/mL","[13]; 25 µg/mL, 48h",97.8 ± 2.35%
same,"viability at 24 h, 50 µg/mL","[13]; 50 µg/mL, 24h",87.7 ± 1.77%
same,"viability at 48 h, 50 µg/mL","[13]; 50 µg/mL, 48h",80.5 ± 1.16%
"Cc1ncc([N+](=O)[O-])n1CCO [Metronidazole, metronidazole, reference compound]",MIC,[2],1950 ± 0.05 µg/mL
same,MIC,[3],970 ± 0.17 µg/mL
same,MIC,[4],1562 ± 0.03 µg/mL
same,MIC,[5],1950 ± 0.05 µg/mL
same,minimal effective concentration,[6],1950 ± 0.09 µg/mL
same,minimal effective concentration,[14],970 ± 0.21 µg/mL
same,minimal effective concentration,[7],1562 ± 0.11 µg/mL
same,minimal effective concentration,[8],1950 ± 0.04 µg/mL
same,"Qualitative antimicrobial activity, Staphylococcus aureus ATCC25923",[9],+
same,"Qualitative antimicrobial activity, Enterococcus faecalis ATCC29212",[10],+
same,"Qualitative antimicrobial activity, Pseudomonas aeruginosa ATCC27853",[11],+
same,"Qualitative antimicrobial activity, Escherichia coli ATCC25922",[12],+
"O=C1CN(/N=C/c2ccc([N+](=O)[O-])o2)C(=O)N1 [Nitrofurantoin, nitrofurantoin, reference compound]",MIC,[2],600 ± 0.04 µg/mL
same,MIC,[3],600 ± 0.12 µg/mL
same,MIC,[4],3571 ± 0.08 µg/mL
same,MIC,[5],600 ± 0.02 µg/mL
same,minimal effective concentration,[6],2230 ± 0.13 µg/mL
same,minimal effective concentration,[14],600 ± 0.17 µg/mL
same,minimal effective concentration,[7],550 ± 0.23 µg/mL
same,minimal effective concentration,[8],600 ± 0.03 µg/mL
same,"Qualitative antimicrobial activity, Staphylococcus aureus ATCC25923",[9],+
same,"Qualitative antimicrobial activity, Enterococcus faecalis ATCC29212",[10],+
same,"Qualitative antimicrobial activity, Pseudomonas aeruginosa ATCC27853",[11],+
same,"Qualitative antimicrobial activity, Escherichia coli ATCC25922",[12],+
